Reference: US9980479B2, “Method of reducing nematode damage” (Syngenta Crop Protection, LLC, priority 2004, dated 2018)
Like-named read-outs stand apart in the source and are kept apart here.

Experiments:
[1] = tested on: Meloidogyne; assay: Experiment 6: clay soil cup test, live 2nd stage nematodes from eggs; format: in vivo; settings: applied solution 3 ppm, 15 days of incubation
Description: (§1) 50 grams of dry clay soil is put into plastic cups. The soil is treated by adding 50 ml of water containing given concentrations (in ppm) of chemicals to the soil. The soil and water is carefully mixed, and thereafter 1 ml of water containing 10.,000 eggs of Meloidogyne is added. After 15 days of incubation, the samples are analyzed for live 2nd stage nematodes by sieving the clay, and rinsing with tap water. The amount of rinseate is adjusted to 20 ml. From the 20 ml, 3 samples of 1 ml are taken and nematodes counted, using a counting chamber.

[2] = tested on: nematodes (Meloidogyne spp.); settings: tomato; for % yield increase over check / Total average weight of tomatoes per 100 plants: at harvest; for % average root galling: drench 1, 18, 32 and 46 days after transplantation
Description: (§2) Tomato plants are transplanted into a field infested with nematodes (Meloidogyne spp.) and treated with the treatments indicated in Table IV below 1, 18, 32 and 46 days after transplantation. The products are applied by drenching 100 ml spray solution per plant. Plot size is 42.7 m^2 with 4 replicates. At harvest (up to 19 weeks later), all tomatoes are collected and weighted. The check is an untreated control.

[3] = tested on: nematodes (Pratylenchus spp.); settings: tomato; for % yield increase over check / Total average weight of tomatoes per treatment: at harvest; for % damage of roots: drench 1, 14, 27 and 40 days after transplantation
Description: as §2, with “(Pratylenchus” for “(Meloidogyne”, “I” for “IV”, “14, 27” for “18, 32”, “40” for “46”, “24” for “42.7”

[4] = tested on: Meloidogyne; assay: Experiment 5: sandy soil cup test, live 2nd stage nematodes from eggs; format: in vivo; settings: applied solution 3 ppm, 15 days of incubation
Description: as §1, with “110 grams” for “50 grams”, “dry sandy” for “dry clay”, “adding 25” for “adding 50”, “carefully mixed” for “carefully mixed,”, “containing 12,000” for “containing 10.,000”, “the sand” for “the clay,”

[5] = tested on: nematodes (Meloidogyne spp.); settings: tomato; for % yield increase over check / Total average weight of tomatoes per 100 plant in kgr: at harvest; for % root galling: drench 1, 18, 32 and 46 days after transplantation
Description: as §2, with “III” for “IV”, “36.7” for “42.7”

[6] = tested on: nematodes (Pratylenchus spp.); settings: tomato; for % yield increase over check / Total average weight of tomatoes per plant in gr: at harvest; for % damage of roots: drench 1, 14, 27 and 40 days after transplantation
Description: as §2, with “(Pratylenchus” for “(Meloidogyne”, “II” for “IV”, “14, 27” for “18, 32”, “40” for “46”, “24” for “42.7”

## O=C(O)CN(CCN(CC(=O)O)CC(=O)O)CC(=O)O [EDTA, ethylenediaminetetraacetic acid]
[1]
  % reduction of live stages: 0.1%
  Number of live 2nd stage nematodes: 1200
[2]; 500 g ai/ha
  % yield increase over check: 6%
  Total average weight of tomatoes per 100 plants: 349 kg
  % average root galling: 34.4%
[2]; 1000 g ai/ha
  % yield increase over check: 10%
  Total average weight of tomatoes per 100 plants: 360 kg
  % average root galling: 23.7%
[3]; 500 g ai/ha
  % yield increase over check: 12%
  Total average weight of tomatoes per treatment: 784 kg
  % damage of roots: 25.8%
[3]; 1000 g ai/ha
  % yield increase over check: 17%
  Total average weight of tomatoes per treatment: 817 kg
  % damage of roots: 22.5%
[4]
  % reduction of live stages: 0.1%
  Number of live 2nd stage nematodes: 1650

## N,N′-ethylenebis(hydroxyphenyl)glycines [EDDHA]
[1]
  % reduction of live stages: 0.3%
  Number of live 2nd stage nematodes: 1197
[4]
  % reduction of live stages: 0.1%
  Number of live 2nd stage nematodes: 1649
[5]; 500 g ai/ha
  % yield increase over check: 13%
  Total average weight of tomatoes per 100 plant in kgr: 255 kgr
  % root galling: 35%
[5]; 1000 g ai/ha
  % yield increase over check: 17%
  Total average weight of tomatoes per 100 plant in kgr: 265 kgr
  % root galling: 26.1%
[6]; 500 g ai/ha
  % yield increase over check: 11%
  Total average weight of tomatoes per plant in gr: 3500 gr
  % damage of roots: 18.5%
[6]; 1000 g ai/ha
  % yield increase over check: 18%
  Total average weight of tomatoes per plant in gr: 3695 gr
  % damage of roots: 13.8%
